Values quoted from earlier work in patent US20140276034A1, “Apparatus Detection of Circulatory Anomalies” (Cardiox Corporation, priority 2013, published 2014).

Conditions: manufacturers specified guideline; cited from earlier work

SMILES: CC1(C)C(=CC=CC=CC=CC2=[N+](CCCCS(=O)(=O)[O-])c3ccc4ccccc4c3C2(C)C)N(CCCCS(=O)(=O)[O-])c2ccc3ccccc3c21.[Na+] [ICG, 1H-benz(e)indolium, 2-[7-[1,3-dihydro-1,1-dimethyl-3-(4-sulfobutyl)-2H-benz[e]indo-2-ylidene]-1,3,5-heptatrienyl]-1,1-dimethyl-3-(4-sulfobutyl)-hydroxide, inner salt, sodium]
- maximum ICG dose per day: 2 milligrams per kilogram of body weight
